The numbers were not newly measured in US8062870B2, “Enantiomerically resolving acyloxyalkyl thiocarbonates used in synthesizing acyloxyalkyl carbamate prodrugs” (XenoPort, Inc., priority 2008, dated 2011), which cites them from elsewhere.

The conditions of this data set: dosed either orally or directly into the colon of a mammal.

On to `CC(C)C[C@H](CNC(=O)OC(C)OC(=O)c1ccccc1)CC(=O)O` (some centres unmarked), for which the bioavailability as pregabalin entry is listed as “high bioavailability”.

`CC(C)C[C@H](CNC(=O)OC(OC(=O)C(C)C)C(C)C)CC(=O)O` (some centres unmarked): the bioavailability as pregabalin entry was “high bioavailability”.
